{
  "source": "patent US20040048837A1",
  "about": "“Method for treatment of renal disease” (priority 2002, published 2004)",
  "key": {"[1]": {"test_system": "patients undergoing chronic hemodialysis", "assay": "Historical cohort study of mortality and survival in chronic hemodialysis patients on intravenous paricalcitol or calcitriol", "assay_type": "in vivo, human", "conditions": "for Mortality rate (deaths/person-years): 36-month follow-up after initiation of injectable vitamin D; for Number of deaths: 36-month follow-up, paricalcitol 18,430 person-years, calcitriol 22,057 person-years; for Crude survival at one year / Crude survival at three years / Crude survival at two years: Kaplan-Meier; for Mortality risk according to quintiles of base line PTH / Mortality risk according to quintiles of base line serum calcium: model adjusted for all covariates; for HR (mortality): reference calcitriol", "procedure": "An historical cohort study was conducted of patients undergoing chronic hemodialysis in Fresenius Medical Care (FMC) dialysis facilities in the United States. Patients who initiated treatment with either paricalcitol or calcitriol beginning Jan. 1, 1999 or after, and who remained exclusively on that intravenous vitamin D formulation until the conclusion of the follow-up period on Dec. 31, 2001, were included in this study. Patients were excluded if they received any form of intravenous vitamin D prior to Jan. 1, 1999 or if they switched from one injectable vitamin D formulation to another during the study period. Patients treated exclusively with other intravenous vitamin D formulations were not studied because of small sample sizes in those groups.\nThe FMC data system is an Oracle database populated by the individual clinical data systems employed in each individual FMC dialysis facility. The database contains demographic, laboratory, hospitalization, and mortality information as well as detailed records of the treatments administered during each hemodialysis run since January 1995. All data were collected prospectively as part of routine patient care in over 1000 dialysis facilities throughout the United States. For this study, no additional data were retrospectively abstracted from medical records.\nUpon a patient's admission to an FMC facility, demographic information including age, gender, race, date of first dialysis, cause of end stage renal disease, and diabetes status were entered into the system. Subsequently, hemodialysis prescription, laboratory tests, and injectable medications were recorded daily. Centralized labs utilized by all FMC facilities performed laboratory tests using standardized assays. Laboratory test results were automatically downloaded from the centralized laboratory to the FMC data system, minimizing the possibility of data entry errors.\nRecords of all medicines administered during hemodialysis included date of administration, medication name, dose, and route of administration. This information was collected and uploaded into a central database on a daily basis, and underwent routine quality assessment and control measures because of their link with billing systems. This permitted restriction of the analysis to those who initiated and remained on a single vitamin D formulation during the study period. Whenever a patient missed a hemodialysis treatment, a temporary absence or permanent discharge must be recorded in the system by the facility staff in order to complete the daily reconciliation of prescribed verses administered treatments. Therefore, all patient deaths, including date and cause of death (ICD-9 coded), were recorded in the database by the individual facilities as one type of permanent discharge. In addition, all hospitalizations are recorded as temporary absences, even if no dialysis treatment was missed. Data entered by the individual facilities underwent continuous quality improvement assessment to ensure their accuracy and completeness.\nThe base line for each individual patient was defined as within a three-month period before starting on paricalcitol or calcitriol. Base line laboratory values were obtained by averaging all values in the three months prior to initiating vitamin D therapy. Quintiles of base line serum calcium and phosphate levels were determined by aggregating values of all patients in the three year time period. Because of known lot-to-lot drifts in parathyroid hormone (PTH) assays, serum levels of PTH were categorized by yearly quintiles, and comparative quintiles across years were combined for the analysis.\nPatient “vintage” was determined as the number of days from the initiation of chronic hemodialysis to the first day paricalcitol or calcitriol was administered. This covariate was examined both as a continuous and a categorical variable. […]"}, "cells": {"test_system": "cells", "conditions": "in vitro; compared with paricalcitol; independent of serum calcium, phosphate, PTH; cited from earlier work"}, "uremic rats": {"test_system": "uremic rats", "conditions": "cited from earlier work"}, "patients": {"test_system": "patients", "conditions": "compared with injectable calcitriol (Calcijex); cited from earlier work"}, "[2]": {"test_system": "patients undergoing chronic renal dialysis", "conditions": "use of paricalcitol; cited from earlier work"}},
  "data": [
    {"smiles": "C=C1/C(=C\\C=C2/CCC[C@]3(C)[C@@H]([C@H](C)CCCC(C)(C)O)CC[C@@H]23)C[C@@H](O)C[C@@H]1O", "note": "[calcitriol, 1,25 dihydroxycholecalciferol]", "values": [
      {"measurement": "Mortality rate (deaths/person-years)", "setting": "[1]", "value": 30.85, "unit": "%"},
      {"measurement": "Number of deaths", "setting": "[1]", "value": 6805, "unit": "deaths"},
      {"measurement": "Crude survival at one year", "setting": "[1]", "value": 73.7, "unit": "%"},
      {"measurement": "Crude survival at three years", "setting": "[1]", "value": 44.1, "unit": "%"},
      {"measurement": "Crude survival at two years", "setting": "[1]", "value": 56.0, "unit": "%"},
      {"measurement": "Mortality risk according to quintiles of base line PTH", "setting": "[1]", "value": "increased with each successive quintile"},
      {"measurement": "Mortality risk according to quintiles of base line serum calcium", "setting": "[1]", "value": "increased with each successive quintile"},
      {"measurement": "Cell sensitization to injury", "setting": "cells", "value": "sensitizes cells to ATP-depletion and iron-mediated injury"}
    ]},
    {"smiles": "C[C@H](/C=C/[C@H](C)C(C)(C)O)[C@H]1CC[C@H]2/C(=C/C=C3C[C@@H](O)C[C@H](O)C3)CCC[C@]12C", "note": "[paricalcitol, 19-Nor=−1, 25-(OH)2D2]", "values": [
      {"measurement": "Mortality rate (deaths/person-years)", "setting": "[1]", "value": 18.54, "unit": "%"},
      {"measurement": "Number of deaths", "setting": "[1]", "value": 3417, "unit": "deaths"},
      {"measurement": "HR (mortality), restricted population, adjusted", "setting": "[1]; Caucasian diabetic patients, ages 60-70 years, vintage <100 days, arteriovenous prosthetic graft, 95% CI 0.21-0.82", "value": 0.42},
      {"measurement": "HR (mortality), restricted population, unadjusted", "setting": "[1]; Caucasian diabetic patients, ages 60-70 years, vintage <100 days, arteriovenous prosthetic graft, 95% CI 0.33-0.85", "value": 0.53},
      {"measurement": "HR (mortality)", "setting": "[1]; Cox model Case Mix, Study Entry Period, SMR, Dialysis Access, Base-Line Laboratory Values, N 25,471", "value": 0.73},
      {"measurement": "HR (mortality)", "setting": "[1]; Cox model Case Mix, Study Entry Period, SMR, Dialysis Access, N 50,572", "value": 0.70},
      {"measurement": "HR (mortality)", "setting": "[1]; Cox model Case Mix, Study Entry Period, SMR, N 50,572", "value": 0.69},
      {"measurement": "HR (mortality)", "setting": "[1]; Cox model Case-Mix and Study Entry Period, N 50,572", "value": 0.70},
      {"measurement": "HR (mortality)", "setting": "[1]; Cox model Case-Mix, N 50,572", "value": 0.61},
      {"measurement": "HR (mortality)", "setting": "[1]; Cox model Unadjusted, N 50,916", "value": 0.58},
      {"measurement": "Crude survival at one year", "setting": "[1]", "value": 82.6, "unit": "%"},
      {"measurement": "Crude survival at three years", "setting": "[1]", "value": 59.3, "unit": "%"},
      {"measurement": "Crude survival at two years", "setting": "[1]", "value": 68.6, "unit": "%"},
      {"measurement": "Apparent risk (survival) benefit associated with paricalcitol treatment", "setting": "[1]; after progressive adjustments, vs calcitriol", "value": "~27", "unit": "%"},
      {"measurement": "Mortality risk within each quintile of serum phosphorus", "setting": "[1]; compared with the calcitriol group, adjusted model", "value": "comparatively lower"},
      {"measurement": "Hazard ratio in the final model (Table 3)", "setting": "[1]; final model n=25,471, Ref = calcitriol", "value": 0.733},
      {"measurement": "Risk reduction for each cause of mortality by ICD-9 codes", "setting": "[1]; infection, neoplasm, cardiovascular, cerebrovascular, other, vs calcitriol, p<0.01", "value": "greater than 50%"},
      {"measurement": "Mortality risk according to quintiles of base line PTH", "setting": "[1]", "value": "significantly lower risk of mortality at all levels of PTH"},
      {"measurement": "Mortality risk according to quintiles of base line serum calcium", "setting": "[1]", "value": "did not appear to have an increased risk of mortality"},
      {"measurement": "Mortality Rate Ratio", "setting": "[1]; paricalcitol vs calcitriol, 95% CI 0.58-0.63, p<0.01", "value": 0.60},
      {"measurement": "Survival advantage over calcitriol in stratum", "setting": "[1]; patients less than 40 years of age at start, event rate 9%", "value": "did not demonstrate a significant survival advantage"},
      {"measurement": "Hypercalcemia or hyperphosphatemia", "setting": "uremic rats", "value": "without producing significant hypercalcemia or hyperphosphatemia"},
      {"measurement": "PTH secretion", "setting": "uremic rats", "value": "suppressed PTH secretion"},
      {"measurement": "Incidence of elevated Ca and/or Ca X P levels", "setting": "patients", "value": "statistically significantly greater"},
      {"measurement": "Adverse effects reported", "setting": "[2]", "value": "nausea, vomiting, metallic tastes, chills, fever, sepsis, palpitations, dry mouth, gastrointestinal bleeding, edema, light-headedness and pneumonia"}
    ]}
  ]
}
